Assay results: EP0526502B1, “PHENOLIC AMINE DEPIGMENTING AND ANTIMELANOMA AGENTS” (The Governors of the University of Alberta, priority 1990, dated 1991)
Several values for one entry are separate records, joined by “and”; a condition that tells them apart may be missing. Identical values can stand only once.

Columns and labels:
Mushroom tyrosinase = Mushroom tyrosinase (Agaricus bisporus, UniProt C7FF04); assay: Enzyme kinetics with tyrosinase (substrate disappearance by HPLC, Lineweaver-Burk); format: biochemical; conditions: result in words
Mushroom tyrosinase, sequence (C7FF04 1-392): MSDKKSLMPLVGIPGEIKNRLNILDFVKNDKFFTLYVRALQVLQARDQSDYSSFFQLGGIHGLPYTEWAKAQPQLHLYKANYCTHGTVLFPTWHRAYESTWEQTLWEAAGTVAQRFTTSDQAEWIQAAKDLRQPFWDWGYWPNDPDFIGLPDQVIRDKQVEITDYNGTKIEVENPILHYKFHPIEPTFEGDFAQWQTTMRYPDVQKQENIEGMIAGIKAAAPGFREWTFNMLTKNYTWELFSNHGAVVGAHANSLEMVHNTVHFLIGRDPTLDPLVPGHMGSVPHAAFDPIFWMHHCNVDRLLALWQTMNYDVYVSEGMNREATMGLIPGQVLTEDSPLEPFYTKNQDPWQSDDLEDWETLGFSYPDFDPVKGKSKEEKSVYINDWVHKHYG
Protocol: (§1) Mushroom tyrosinase (400 units/mg) and plasma MAO (1000 units/gm) were obtained from Sigma Chemical Co. (St. Louis, MO, USA). A reaction mixture consisted of a substrate of 7 to 8 different concentrations (40 to 500 »M for mushroom tyrosinase and 20 to 200 »M for MAO) and of either mushroom tyrosinase (2.5 »g) or MAO (10 »g) in 1.0 mL of 0.05 M sodium phosphate buffer, pH 6.8 and 7.4 respectively. The reactions were carried out at 37°C in a shaking water bath, and stopped by taking 100 »L of the reaction mixture and adding it to 900 »L of 0.4 M HCLO₄. The disappearance of substrate was followed using HPLC (high pressure liquid chromatography) Km and Vmax values were calculated from the Lineweaver-Burk plots.

plasma MAO = molecular target: T1, plasma MAO (Bos taurus, UniProt Q29437); assay: Enzyme kinetics with monoamineoxidase (substrate disappearance by HPLC, Lineweaver-Burk); format: biochemical; conditions: result in words
T1 construct: purchased Sigma Chemical Co. (St. Louis, MO, USA)
T1 sequence (Q29437 17-762): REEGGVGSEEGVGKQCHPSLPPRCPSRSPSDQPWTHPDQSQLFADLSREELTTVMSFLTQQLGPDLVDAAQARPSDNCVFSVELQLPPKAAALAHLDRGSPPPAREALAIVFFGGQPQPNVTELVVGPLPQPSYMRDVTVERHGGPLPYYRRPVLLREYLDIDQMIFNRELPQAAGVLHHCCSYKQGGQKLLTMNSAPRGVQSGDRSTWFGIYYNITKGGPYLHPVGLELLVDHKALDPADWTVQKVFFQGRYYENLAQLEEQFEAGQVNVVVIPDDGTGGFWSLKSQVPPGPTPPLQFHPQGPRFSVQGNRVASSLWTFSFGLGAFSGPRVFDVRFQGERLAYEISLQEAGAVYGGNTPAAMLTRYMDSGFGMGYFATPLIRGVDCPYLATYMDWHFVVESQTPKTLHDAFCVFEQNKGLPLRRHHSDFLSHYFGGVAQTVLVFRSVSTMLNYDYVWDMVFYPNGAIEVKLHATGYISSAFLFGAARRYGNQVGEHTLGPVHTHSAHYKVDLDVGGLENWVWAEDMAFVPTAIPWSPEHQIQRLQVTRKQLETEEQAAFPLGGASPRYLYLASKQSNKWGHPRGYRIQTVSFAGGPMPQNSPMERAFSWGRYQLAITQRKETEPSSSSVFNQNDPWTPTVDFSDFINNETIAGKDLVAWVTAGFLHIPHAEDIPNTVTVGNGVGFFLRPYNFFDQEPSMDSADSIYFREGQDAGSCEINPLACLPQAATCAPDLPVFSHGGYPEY
Protocol: as §1

B16 melanoma = assay: In vivo growth inhibition of s.c. inoculated B16 melanoma; set-up: species or system C57BL/6J mice; conditions: 200 mg/Kg i.p. daily for nine days, day 12 or 13
Protocol: The in vivo antimelanoma effect of the compounds were evaluated by percent growth inhibition of inoculated tumour (%g.i.). The percent g.i. was computed from the mean tumour volume at day 12 or 13 of the experiments; i.e., 100 x (1- treated group/control group). […] To further examine whether a minimal dose of N-Ac-4-S-CAP, 200 mg/Kg has an antimelanoma effect, three groups of mice were treated with N-Ac-4-S-CAP. […] One of the advantages of N-Ac-4-S-CAP over 4-S-CAP was that it had much higher LD⁵⁰ (as high as 1400 mg/Kg of body weight, and therefore a greater range of safety).

B16F10 melanoma = assay: Melanoma-colony formation in the lungs; format: in vivo, mice; conditions: 300 mg/kg i.p. daily for 14 days from day five; lungs excised day 26
Protocol: Murine B16F10 melanoma cell line with a strong metastatic property to form tumour colonies in the lungs was obtained from Dr. Longenecker, Department of Immunology, University of Alberta. Such cell line is well recognized and readily available as reported in Miura et al, supra. The cells were grown in T-75 flasks in dulbecco's MEM available from Gipco Lab Inc., Grand Island, New York, supplemented with 10% fetal calf serum, also obtained from Gipco, penicillin (100 »/ml) and streptomycin (100 »g/ml). The cells were incubated at 37°C in humidified atmosphere of 5% CO₂ in air. The cells were harvested by applying a thin layer of 0.25% trypsin solution in EDTA, washed and resuspended in cold N saline solution. Viable cells were identified by trypan blue dye exclusion and counted. The cell suspension was diluted to the desired concentration. Three groups of mice were studied using a control 4-S-CAP and N-Ac-4-S-CAP as the active agents in the treatment. On day zero, the mice were inoculated via the lateral tail vein with 5 x 10⁴ cells in 0.2 ml of N saline. The test drugs were dissolved in normal saline, sterilized by membrane filtration, and administered in a dose of 300 mg/Kg (4-S-CAP) or 900 mg/Kg (N-Ac-4-S-CAP); starting on day five, the control solution or drug was injected i.p. daily for 14 days. On day 26, the mice were killed by cervical dislocation, their lungs were removed, and the number of melanoma colonies was counted under a dissecting microscope. The results were expressed as percentage reduction in the number of colonies: [a - b/a] x 100, where a = colonies in control group and b = colonies in experimental group.

follicular melanocytes = assay: Depigmentation of new hair after plucking (PTCA/eumelanin content of hair follicles); format: in vivo, C57BL/6J black mice; conditions: for PTCA Content / Depigmentation: hair harvested day 22
Protocol: Breeding pairs of C57BL/6J black mice were purchased from Jackson Laboratory, Bar Harbor, Maine. Female progeny were used in this testing when approximately 8 weeks old and weighing 17 grams.
Black hairs were plucked manually from the back of the mice to initiate new anagen growth and activate follicular melanocytes with increased tyrosinase activity. Thirty mice were randomized into 6 groups of 5 (1 control and 1 for each compound). Starting on day 1, daily for 14 days the agent was injected i.p. or was infiltrated s.c. in an area where hair follicles had been plucked; the dose was 300 mg/kg body weight.
In the same 30 mice, hair follicles were harvested on day 22 (early telogen phase) and their eumelanin content analyzed. Details of the assay, including chemical degration of melanin and high-performance liquid chromatography (HPLC) were as described in Ito et al, "Quantitative Analysis of Eumelanin and Pheomelanin in Hair and Melanosomes" J. Invest. Dermatol 80:268-272, 1983. Briefly, a 10-mg hair sample is homogenized in water at a concentration of 10 mg/ml; the 200-»l homogenate is transferred to a screw-capped test tube, mixed with 1M H₂SO₄ (800 »L) and oxidized with 3% KMnO₄. The product, pyrrole-2,3,5-tricarboxylic acid (PTCA), is analyzed by HPLC with a UVL detector; samples are measured in duplicate. The eumelanin content is expressed as PTCA (ng/mg) against the PCTA content of BALB/c albino mice as control (≦ 10 ng/mg, the background value with our method, in which 1 ng corresponds roughly to a eumelanin content of 50 ng), and the degree of depigmentation is expressed as a percentage: (PTCA content of control sampleminusPTCA content of experimental sample)/(PCTA content of control sample) x 100 [formula] .

melanocytes = assay: Light and electron microscopy of melanocytes in regrowing hair follicles; format: in vivo, mice; conditions: for electron microscopy of hair follicles: melanocytes and melanosomes: i.p. injection for 10 days
Protocol: In six groups of 4 mice (1 control and 1 for each compound) were treated daily with the control or compound injected i.p. The compounds tested were 4-S-CAP, N-Ac-4-S-CAP and α-Me-4-S-CAP. Samples of skin and regrowing hair follicles were excised under brief general anaesthesia on day 10 (late anagen phase), fixed in Karnovsky's solution (2.5% glutaraldehyde and 2.5% paraformaldehyde in 0l1 M cacodylate buffer), and refixed in 1% osmium tetroxide in cadodylate buffer. Tissues were stained en bloc with 1.5% uranyl acetate in o.1 M veronal buffer for 30min, dehydrated in graded ethanol solutions, embedded in epoxy resin, and sectioned with a Potter-Blum ultramicrotome MT II. Sections 1.0 »m thick were stained with methylene blue for light microscopy, thin sections were stained with led citrate for electron microscopy.

[1] = acute toxicity evaluated from 100 to 1600 mg/Kg; Miura et al; cited from earlier work
[2] = Acute toxicity / lethal dose and maximum tolerable dose; conditions: mouse, in vivo
Protocol: 3:1-85 1972. In accordance with this Protocol, ten to fifteen mice were used in each test group. They were weighed and randomized at day one after s.c. inoculation of B16 melanoma cells. From day five, the phenolic melanin precursors were administered i.p. daily for nine days. The test compounds were dissolved in normal saline, and sterilized by heating to 100°C for 2 minutes. […] They were administered i.p. with the following doses: 400 mg/Kg - 4-S-CAP; 200 to 300 mg/Kg - 4-S-CAP; and 200 to 1200 mg/Kg - N-Ac-4-S-CAP. A catalytic amount of L-dopa, 25 mg/Kg and antidecarboxylase, carbidopa, 400 mg/Kg, were also administered. Carbidopa was given one hour prior to L-dopa administration. DTIC (NSC 4538) was used as a control drug at a dose of 60 mg/Kg. Acute toxicity of 4-S-CP and 4-S-CAP was evaluated from 100 to 1600 mg/Kg.
The B16 mouse melanoma was maintained by s.c. inoculation of tumour cells into the back of C57BL7J mice (5 to 6 weeks, female). […] Briefly, excised tumours were homogenized in normal saline. The homogenized tumour cells were then passed through a sterile 80 mesh stainless steel screen, washed with normal saline, centrifuged (500 g. for 10 minutes) and resuspended in normal saline. Suspensions of viable melanoma cells at the concentration of 1 x 10⁶ per 0.1 ml were inoculated s.c. into both the right and left inguinal areas of C57BL/6J mice (female, 5 to 6 weeks old, 18 to 20 gm).

[3] = Route s.c., 300 mg/kg daily for 14 days
[4] = Route s.c., 300 mg/kg daily for 14 days, 300 mg/kg
[5] = Route: i.p., 300 mg/kg daily for 14 days
[6] = Route: i.p., 300 mg/kg daily for 14 days, 300 mg/kg

Q: For NCCSc1ccc(O)cc1 [4-S-CAP, 4-S-cysteaminylphenol, reference compound], which tyrosinase substrate (Mushroom tyrosinase) is on record?
A: a substrate for both plasma MAO and tyrosinase

Q: And the “substrate for plasma MAO” value (plasma MAO)?
A: a substrate for both plasma MAO and tyrosinase

Q: And the “%Gi” value (B16 melanoma; Experiment I)?
A: 54.0%

Q: And the “Tumour Volume” value (B16 melanoma; Experiment I)?
A: 239 ± 39 mm^3

Q: And the “%Gi” value (B16 melanoma; Experiment II)?
A: 25.1%

Q: What about the “Tumour Volume” value (B16 melanoma; Experiment II) of the same compound?
A: 405 ± 61 mm^3

Q: And the “No. of Colonies % control” value (B16F10 melanoma)?
A: 30% and 32.4%

Q: What about the “No. of Colonies per pair of lungs” value (B16F10 melanoma) of the same compound?
A: 28.0 ± 14.5

Q: And the “PTCA Content” value (follicular melanocytes; [3])?
A: 458.3 ± 107.6 ng/mg

Q: What about the Depigmentation (follicular melanocytes; [4]) of the same compound?
A: 47% and 46.9%

Q: And the “PTCA Content” value (follicular melanocytes; [5])?
A: 146.1 ± 72.4 ng/mg

Q: And the Depigmentation (follicular melanocytes; [6])?
A: 87% and 86.6%

Q: And the “light microscopy of hair follicles: functioning melanocytes and melanin pigments” value (melanocytes; i.p. daily, day 10 (late anagen phase))?
A: the hair follicles contained functioning melanocytes and melanin pigments transferred into keratonocytes, although they were much sparser than in the controls

Q: What about the “electron microscopy of hair follicles: melanocytes and melanosomes” value (melanocytes) of the same compound?
A: contained immature melanosomes at stages II and III

Q: What about the lethal dose [1] of the same compound?
A: 400 mg/kg

Q: With CN(C)CCSc1ccc(O)cc1 [N,N-DiMe-4-S-CAP, N,N'-dimethyl-4-S-CAP] as the compound, how does the Depigmentation (follicular melanocytes; [3]) read?
A: 6.1%

Q: What about the “PTCA Content” value (follicular melanocytes; [3]) of the same compound?
A: 1023.4 ± 110.1 ng/mg

Q: And the Depigmentation (follicular melanocytes; [5])?
A: 7.3%

Q: What about the “PTCA Content” value (follicular melanocytes; [5]) of the same compound?
A: 1009.0 ± 193.5 ng/mg

Q: What about the “visible pigmentation of new hair” value (follicular melanocytes; i.p. or s.c. route, result in words) of the same compound?
A: no visible changes in pigmentation in new follicles

Q: For CC(N)CSc1ccc(O)cc1 (stereo not drawn) [α-Me-4-S-CAP, α-methyl-4-S-CAP], which “per single dose toxicity levels” value [2] is on record?
A: ~500 mg/kg of body weight

Q: What about the side-effects (follicular melanocytes; 300 mg/kg daily for 14 days, i.p. or s.c., irritation seen after s.c. administration) of the same compound?
A: some irritation of the skin in the plucked area

Q: What about the “PTCA Content” value (follicular melanocytes; [3]) of the same compound?
A: 557.9 ± 47.2 ng/mg

Q: And the Depigmentation (follicular melanocytes; [4])?
A: 58% and 57.9%

Q: What about the “PTCA Content” value (follicular melanocytes; [5]) of the same compound?
A: 121.3 ± 81.9 ng/mg

Q: And the Depigmentation (follicular melanocytes; [6])?
A: 89% and 88.9%

Q: And the “electron microscopy of hair follicles: melanocytes and melanosomes” value (melanocytes)?
A: contained immature melanosomes at stages II and III

Q: For NCCCSc1ccc(O)cc1 [4-S-HomoCAP, 4-S-homo-CAP], which Depigmentation (follicular melanocytes; [3]) is on record?
A: 63.5%

Q: What about the “PTCA Content” value (follicular melanocytes; [3]) of the same compound?
A: 397.7 ± 279.3 ng/mg

Q: And the Depigmentation (follicular melanocytes; [5])?
A: 12.1%

Q: What about the “PTCA Content” value (follicular melanocytes; [5]) of the same compound?
A: 956.7 ± 77.9 ng/mg

Q: Which lethal dose [1] does the source give for N[C@@H](CSc1ccc(O)cc1)C(=O)O [4-S-CP, 4-S-cysteinylphenol] here?
A: 600 mg/kg
